Assay results taken from patent US7109209B2, “Pyrazolopyridines, process for their preparation and use as therapeutic compounds” (SmithKline Beecham Corporation, priority 2001, dated 2006).

Tested on: HSV-1
Test: HSV-1 infection of Vero 76 cells, viral DNA detected by hybridization capture (chemiluminescence)
Type: cell-based
Conditions: Human alphaherpesvirus 1; HSV-1 in Vero 76 cells, MOI=0.001, 40-48 hours at 37° C.
Experimental: Vero 76 cells were maintained in MEM with Earle's salts, L-glutamine, 8% FBS (Hyclone, A-1111-L) and 100 units/mL Penicillin-100 μg/mL Streptomycin. For assay conditions, FBS was reduced to 2%. Cells are seeded into 96-well tissue culture plates at a density of 5×10^4 cells/well after being incubated for 45 min at 37° C. in the presence of HSV-1 or HSV-2 (MOI=0.001). Test compounds are added to the wells and the plates are incubated at 37° C. for 40-48 hours. Cell lysates are prepared as follows: media was removed and replaced with 150 VL/well 0.2 N NaOH with 1% Igepal CA 630 or NP-40. Plates were incubated up to 14 days at room temperature in a humidified chamber to prevent evaporation.
For the detection probe, a gel-purified, digoxigenin-labeled, 710-bp PCR fragment of the HSV UL-15 sequence was utilized. […]
Twenty-seven (27) μL of cell lysate was combined with 45 μL of hybridization solution (final concentration: 3M GuSCN, 50 mM EDTA, 100 μg/ml salmon sperm DNA, 5× Denhardt's solution, 0.25×APE, and 5 ng of the digoxigenin-labeled detection probe). […] The plates were incubated at room temperature for 30 minutes and chemiluminescence was measured in a Wallac Victor reader.

IC50 [nM]	Structure (SMILES)
2000	CCSc1cc(Cl)cc2c(-c3ccnc(NC4CCCC4)n3)c(-c3ccc(F)cc3)nn12 [Example 32, N-{4-[5-Chloro-7-(ethylsulfanyl)-2-(4-fluorophenyl)pyrazolo[1,5-α]pyridin-3-yl]-2-pyrimidinyl}-N-cyclopentylamine]
500	CSc1cc(N2CCOCC2)cc2c(-c3ccnc(NC4CCCC4)n3)c(-c3ccc(F)cc3)nn12 [Example 44, N-Cyclopentyl-4-[2-(4-fluorophenyl)-7-(methylthio)-5-morpholin-4-ylpyrazolo[1,5-α]pyridin-3-yl]pyrimidin-2-amine]
